Structures can show the parent of a compound that is named as a salt.
Test system: Con A-induced hepatitis model
Experiment: Con A-induced hepatitis model: liver-infiltrating cells counted with FACS Calibur
Type: in vivo, Male BALB/c mice
Protocol: Male BALB/c mice, aged 8 to 12 weeks, were purchased from Charles River, Japan. Concanavalin A (referred to as “Con A,” hereinafter) was dissolved in phosphate-buffered saline (PBS). 0.2 ml of this solution was intravenously administered to the animals to deliver 40 mg/kg of Con A. KRP-203 suspended in distilled water was orally administered at a dose of 0.1 mg/10 g body weight 24 hours before the administration of Con A. The animals were sacrificed 24 hours after the administration of Con A and the serum transaminase activity was measured. Also, the liver was perfused with 30 mL 0.1% EDTA-PBS to collect liver infiltrate (Eur. J. Immunol., 17: 37, 1987). To avoid contamination with lymphocytes in the periphery blood, the first 2.5 ml of the collected 0.1% EDTA-PBS was discarded. The collected cells were stained with anti-CD4 antibody, anti-CD8 antibody, anti-CD3 antibody, anti-CD45/B220 antibody, anti-CD11b antibody, anti-Ly-49C antibody and were counted with FACS Calibur.

[1] = KRP-203 1 mg/kg oral 24 h before Con A 40 mg/kg i.v., 24 h after Con A

NC(CO)(CO)CCc1ccc(Sc2cccc(OCc3ccccc3)c2)cc1Cl [KRP-203, 2-amino-2-[4-(3-benzyloxyphenylthio)-2-chlorophenyl]ethyl-1,3-propanediol hydrochloride]
Number of cells that infiltrated the liver: B220^+ [1]: 2.06 ± 0.21 ×10^5 | Number of cells that infiltrated the liver: CD3^+ NK− [1]: 2.29 ± 0.53 ×10^5 | Number of cells that infiltrated the liver: CD4^+ [1]: 0.93 ± 0.33 ×10^5 | Number of cells that infiltrated the liver: CD8^+ [1]: 2.53 ± 0.64 ×10^5 | Number of cells that infiltrated the liver: CD11b^+ [1]: 8.47 ± 2.75 ×10^5 | Number of cells that infiltrated the liver: NK^+ CD3− [1]: 0.40 ± 0.24 ×10^5 | Number of cells that infiltrated the liver: Total cells [1]: 16.3 ± 3.5 ×10^5 | Decrease of total number of infiltrated cells in the liver (group receiving KRP-203 (1 mg/kg) vs control): about 50%

Source: patent US8048928B2, “Therapeutic agent for treating liver disease containing 2-amino-1,3-propanediol derivative as active ingredient, and method for treating liver disease” (Kyorin Pharmaceutical Co., Ltd., priority 2005, dated 2011)
